These results are taken from ChEMBL document CHEMBL4334492, “Nectriatide, a Potentiator of Amphotericin B Activity from Nectriaceae sp. BF-0114” (J Nat Prod, 2019).

As usually defined, the MIC is the lowest concentration found to suppress growth. Usually IC50 stands for the concentration that gives 50% inhibition.

≈ marks a conversion by molar mass, not a printed value. Non-standard residues stand in square brackets, D forms with d. Residues, ends and D or L forms follow the SMILES beside them. *: point of attachment. NMeY = CN[C@@H](Cc1ccc(O)cc1)C(=O)O; 2Abz = Nc1ccccc1C(=O)O; tBu = CC(C)(C)*

In assay [1] the test system is Candida albicans. The assay can be described thus: Potentiation of amphotericin-induced antifungal activity against Candida albicans ATCC 90029 assessed as fold reduction in amphotericin MIC at 32 ug/ml after 24 hrs by broth microdilution method relative to amphotericin MIC alone. The class given is functional.
For assay [2], the system named is Candida albicans. Briefly: Potentiation of amphotericin-induced antifungal activity against Candida albicans ATCC 90029 assessed as amphotericin MIC at 32 ug/ml after 24 hrs by broth microdilution method (reference value: 0.5 ug/ml). The class given is functional. The settings on record: ATCC 90029, 24 h. (In general: In broth dilution the organism is exposed to a series of concentrations in liquid medium.)

For assay [3], the system named is Candida albicans. The assay can be described thus: Potentiation of amphotericin-induced antifungal activity against Candida albicans ATCC 90029 assessed as fold reduction in amphotericin MIC at 4 ug/ml after 24 hrs by broth microdilution method relative to amphotericin MIC alone. The class given is functional.
The test system of assay [4] is Candida albicans. The assay can be described thus: Potentiation of amphotericin-induced antifungal activity against Candida albicans ATCC 90029 assessed as fold reduction in amphotericin MIC at 2 ug/ml after 24 hrs by broth microdilution method relative to amphotericin MIC alone. In kind it is functional.
Assay [5] relates to Candida albicans. Briefly: Potentiation of amphotericin-induced antifungal activity against Candida albicans ATCC 90029 assessed as fold reduction in amphotericin MIC at 16 ug/ml after 24 hrs by broth microdilution method relative to amphotericin MIC alone. In kind it is functional.
Assay [6] relates to Candida albicans. The assay can be described thus: Potentiation of amphotericin-induced antifungal activity against Candida albicans ATCC 90029 assessed as amphotericin MIC at 4 ug/ml after 24 hrs by broth microdilution method (reference value: 0.5 ug/ml). The following applies: ATCC 90029, 24 h. In kind it is functional.
For assay [7], the system named is Candida albicans. Briefly: Potentiation of amphotericin-induced antifungal activity against Candida albicans ATCC 90029 assessed as amphotericin MIC at 2 ug/ml after 24 hrs by broth microdilution method (reference value: 0.5 ug/ml). In kind it is functional. The following applies: ATCC 90029, 24 h.
In assay [8] the test system is Candida albicans. The assay can be described thus: Potentiation of amphotericin-induced antifungal activity against Candida albicans ATCC 90029 assessed as amphotericin MIC at 16 ug/ml after 24 hrs by broth microdilution method (reference value: 0.5 ug/ml). The settings on record: ATCC 90029, 24 h. In kind it is functional.
Assay [9] relates to Candida albicans. Briefly: Potentiation of amphotericin-induced antifungal activity against Candida albicans ATCC 90029 assessed as amphotericin MIC at 8 ug/ml after 24 hrs by broth microdilution method (reference value: 0.5 ug/ml). The class given is functional. The following applies: ATCC 90029, 24 h.
The subject of assay [10] is HEK293. The assay can be described thus: Cytotoxicity against human HEK293 cells assessed as reduction in cell viability after 24 hrs by MTT assay. In kind it is cell-based. The following applies: HEK293, 24 h. On the technique in general: Tetrazolium dyes change colour on reduction, which living cells bring about.
Assay [11] relates to Candida albicans. The assay can be described thus: Potentiation of amphotericin-induced antifungal activity against Candida albicans ATCC 90029 assessed as fold reduction in amphotericin MIC at 8 ug/ml after 24 hrs by broth microdilution method relative to amphotericin MIC alone. In kind it is functional.

For `CN[C@@H](Cc1ccc(OC(C)(C)C)cc1)C(=O)Nc1ccccc1C(=O)N[C@@H](C)C(=O)O`, the Ratio in assay [1] worked out at 2. Also, in assay [2], the minimal inhibitory concentration (MIC) is 0.25 µg/mL.
Regarding `CC(C)[C@H](NC(=O)[C@H](C)N)C(=O)N(C)[C@@H](Cc1ccc(OC(C)(C)C)cc1)C(=O)Nc1ccccc1C(=O)O` (H-AV[NMeY](tBu)[2Abz]-OH), the Ratio in [3] came to 4; in [4], 2; in assay [1] it was 16; in assay [5], 16. For the same compound, the MIC amounted to 0.13 µg/mL in [6]; 0.25 µg/mL in assay [7]; 0.031 µg/mL in assay [2]; 0.031 µg/mL in assay [8]; 0.031 µg/mL in assay [9].
With `C[C@@H]1[C@H](O)[C@@H](C)/C=C/C=C/C=C/C=C/C=C/C=C/C=C/[C@H](O[C@@H]2O[C@H](C)[C@@H](O)[C@H](N)[C@@H]2O)C[C@@H]2O[C@](O)(C[C@@H](O)C[C@@H](O)[C@H](O)CC[C@@H](O)C[C@@H](O)CC(=O)O[C@H]1C)C[C@H](O)[C@H]2C(=O)O` [AMPHOTERICIN B], the half-maximal inhibitory concentration (IC50) in assay [10] amounted to 15 µg/mL (≈ 16.2 µM).
On to `CC(C)[C@H](NC(=O)[C@H](C)NC(=O)c1ccccc1N)C(=O)N(C)[C@@H](Cc1ccc(OC(C)(C)C)cc1)C(=O)O` (H-[2Abz]AV[NMeY](tBu)-OH), for which the Ratio came out at 4 in assay [1], 4 in assay [5] and 2 in assay [11]. Moreover, the MIC in assay [2] was 0.13 µg/mL; in assay [8] it was 0.13 µg/mL; in assay [9], 0.25 µg/mL.
For `CN[C@@H](Cc1ccc(OC(C)(C)C)cc1)C(=O)Nc1ccccc1C(=O)O`, in assay [1], the Ratio was 4. Further, in assay [2], the MIC came to 0.13 µg/mL.
For the compound `CC(C)[C@@H]1NC(=O)[C@H](C)NC(=O)c2ccccc2NC(=O)[C@H](Cc2ccc(OC(C)(C)C)cc2)N(C)C1=O` (cyclo([2Abz]AV[NMeY](tBu))), the Ratio in assay [1] is on record as 16; in [5] it was 8; in assay [11], 4. In addition, the MIC in [2] is 0.031 µg/mL; in assay [8] it was 0.063 µg/mL; in [9], 0.13 µg/mL.
